Data: patent publication US20070281046A1, “Method for removing organic contaminants from Chinese herb medicines” (Committee on Chinese Medicine and Pharmacy, Department of …, priority 2006, published 2007)

Test: PCNB concentration after gamma irradiation in samples of P. quinquefolium and in methanol solution
Type: physicochemical
Conditions: for concentration of the remaining PCNB / concentration of the remaining PCNB as compared to before treatment: 2 ppm PCNB in methanol solution
[1] = P. quinquefolium samples containing 2 ppm PCNB, 20 kGy

O=[N+]([O-])c1c(Cl)c(Cl)c(Cl)c(Cl)c1Cl [PCNB, pentachloronitrobenzene]
concentration of the remaining PCNB (20 kGy): 0.056 ppm | concentration of the remaining PCNB as compared to before treatment (20 kGy): 2.79% | concentration of the remaining PCNB (25 kGy): 0.008 ppm | concentration of the remaining PCNB as compared to before treatment (25 kGy): 0.86% | PCNB concentration as % of the original concentration [1]: 4.01% | PCNB concentration remaining [1]: 0.08 ppm
